Results as given in US20260158023A1, “APOMORPHINE FOR TREATING OR IMPROVING POST-TRAUMATIC STRESS DISORDER” (priority 2024, published 2026).

Key:
[1] = test system: one-time persistent stress post-traumatic stress model; assay: stimulus identification fear conditioning experiment in one-time persistent stress model; format: in vivo, mice; conditions: for fear response to safety stimuli: one-time persistent stress model; for CS-freezing: one week after one-time persistent stress
Description: (§1) C57BL/6 mice were stressed by restricting movement for 2 hours (restraint stress), and one week later, two sounds were simultaneously applied: one with sound-only (safety stimuli) and the other with sound paired with electrical stimulation (fear stimuli). The next day, generalization, the freezing level to the safety stimulus (CS-), which is one of the indicators of post-traumatic stress disorder, was measured through fear responses to the two sounds (stimulus identification fear conditioning experiment).
(§2) In order to strengthen the fear response to safety stimuli, a one-time persistent stress was introduced to apply stronger stress. The one-time persistent stress consists of the existing 2-hour restraint stress, 10-minute forced swim test, and 5-minute ether anesthesia.
We observed the fear response in a stimulus identification fear conditioning experiment when apomorphine (1 ug/kg, 3 ug/kg) was administered one week after a one-time persistent stress, which is a more powerful post-traumatic stress model.
In order to compare the effect of apomorphine with that of the existing treatment, paroxetine, a stimulus identification fear conditioning experiment was conducted after stress was applied under the same conditions.

[2] = test system: restraint stress post-traumatic stress model (C57BL/6 mice); assay: stimulus identification fear conditioning experiment in restraint stress model of post-traumatic stress disorder; format: in vivo; conditions: administered 30 minutes before the fear test
Description: as §1
To confirm the effect of apomorphine on the post-traumatic stress model according to concentration, apomorphine of different concentrations was administered 30 minutes before the fear test.

[3] = test system: one-time persistent stress post-traumatic stress model; assay: open field test in one-time persistent stress model; format: in vivo, mice; conditions: after apomorphine administration
Text: as §2
The level of anxiety symptoms can be determined through the time spent in the center in the open field test.

[4] = test system: one-time persistent stress post-traumatic stress model; assay: elevated plus maze test in one-time persistent stress model; format: in vivo, mice; conditions: after apomorphine administration
normal mice (drd4 WT) = assay: stimulus identification fear conditioning experiment in one-time persistent stress model, normal mice (drd4 WT); format: in vivo; conditions: as in Example 2.3
[5] = test system: mice lacking drd4 receptors (drd4 KO); assay: stimulus identification fear conditioning experiment in one-time persistent stress model, mice lacking drd4 receptors (drd4 KO); format: in vivo; conditions: as in Example 2.3

Structure (SMILES): Fc1ccc([C@@H]2CCNC[C@H]2COc2ccc3c(c2)OCO3)cc1 [paroxetine]
- fear response to safety stimuli ([1]; 5 ug/kg): no significant difference
- fear response to safety stimuli ([1]; all concentrations: 150 ug/kg, 300 ug/kg and 500 ug/kg): reduced

Structure (SMILES): CN1CCc2cccc3c2[C@H]1Cc1ccc(O)c(O)c1-3 [apomorphine, Apomorphine]
- CS-freezing (freezing level to the safety stimulus) ([2]; 1 ug/kg): decreased
- CS-freezing (freezing level to the safety stimulus) ([2]; 3 ug/kg): did not change
- mean distance in the open field test (overall walking function) [3]: no difference
- time spent in the center in the open field test [3]: significantly increased
- time spent in the open arm in the elevated plus maze test [4]: significantly increased
- CS-freezing ([1]; 1 ug/kg): decreased
- CS-freezing ([1]; 3 ug/kg): did not change
- fear response compared to vehicle administration (normal mice (drd4 WT)): decreased
- fear response between apomorphine administration and vehicle administration [5]: no difference
